The values below come from a melting point compilation (Tetko et al.; mined from patent text by program, amines drawn as free bases though some values may be those of a salt).

As to `CCC(C)Sc1cc(C(=O)O)cc(N)c1Oc1ccccc1` (centres undefined), the melting point (usually the temperature of the solid-liquid transition) fell in the range of 157 to 159 °C. Then `CC(C)CCOc1ccc(C(=O)c2c(N)sc3c2CCN(Cc2ccccc2)C3)cc1`, with 106 to 107 °C. Then `CCCC(=O)c1cnc2c(OC)cccc2c1Nc1c(C)cc(O)cc1C`, with 247 to 248 °C. Next, `O=C(O)COc1ccc(SCc2ccc(OCc3ccc(F)cc3F)cc2)c2c1CCC2`: 158 to 160 °C; `CC(=O)NC1(c2ccc(C(C)=O)cc2)CC1`: 128 to 131 °C. Compound `CCc1cccc(CC)c1NC(=O)Nc1oc2ccc(C)cc2c1-c1ccccc1Cl` registered a melting point of 214 to 215 °C. `CCS(=O)(=O)Nc1ccc(F)c([N+](=O)[O-])c1` displayed a melting point of 133 to 136 °C.

On to `O=C1C=CC2=C(C1)Cc1ccccc1OCO2`, for which the melting point lay in the range of 93 to 95 °C. Compound `CC(C)n1cnc2c(Nc3cccc(Cl)c3)nc(NCCN)nc21` had a melting point of 55 to 56 °C.

Compound `COc1nc(N2CC(O)C2)c(Cl)nc1NS(=O)(=O)c1cccc(Cl)c1Cl` registered a melting point of 93 to 95 °C. Next, `Cc1c(C(=O)c2cccnc2)sc2cc(Br)ccc12`: 110 to 111 °C; `COc1cccc(-c2cc(=O)cc(N3CCOCC3)o2)c1`: 115 to 117 °C; `O=c1[nH]c2ccccc2n1Cc1ccccc1`: 194 °C. For the compound `CCn1c(=O)c2[nH]c(/C=C/c3cc(OC)cc(OC)c3)nc2n(CC)c1=O`, the melting point is > 270 °C. As to `Cc1cc2c(c3ccc(=O)[nH]c13)OC(C(O)CN=[N+]=[N-])C2` (centres undefined), the melting point was 173 to 175 °C.

As to `CCCCOc1cc(/C=C(\OCC)C(=O)O)ccc1OCCc1ccc(OS(=O)(=O)CCCC)c(OC)c1`, the melting point was found to be 94 °C.

On to `COc1ccc(-c2nnc(S)nc2-c2ccc(OC)cc2)cc1`, for which the melting point lay in the range of 228 to 232 °C.

For the compound `CN1CCCC1c1ccc(Nc2cc(Br)cn(C)c2=O)nc1` (centres undefined), the melting point was in the range of 143 to 145 °C. Then `[N-]=[N+]=C1c2cc(F)ccc2-c2ccc(F)cc21`, with 148 to 150 °C; and `CC(C)(c1ccc(Oc2cccc(N)c2)cc1)c1ccc(Oc2cccc(N)c2)cc1`, with 106 to 108 °C; and `NC(=O)c1ccc2nc3ccsc3c(=O)n2c1`, with 319 to 320 °C. For the compound `O=C(Nc1ccc2c(c1)C(=O)NC2=O)C(=O)N1CCC(Cc2ccccc2)CC1`, the melting point lay in the range of 239 to 241 °C. `COc1cc2ncn(CCCCl)c(=O)c2cc1OC` gave a melting point of 143 °C. Next, `CN(C)Nc1cc(F)ccc1[N+](=O)[O-]`: 67 to 71 °C; `CC(C)(OC(=O)c1ccccc1)c1nccc2ccccc12`: 116 to 119 °C. The compound `c1ccc(-c2cc3ccccc3n2-c2ccccc2)cc1` yielded a melting point of 78 to 80 °C.

`COc1cncnc1N1CCN(CCCc2c[nH]c3ccc(Nc4c(OC(C)C)c(=O)c4=O)cc23)CC1` came in with a melting point of 140 to 143 °C.

Consider `CC(C)(C)CC(=O)c1c(CC(C)(C)C(=O)O)n(Cc2ccc(Cl)cc2)c2ccc(OCc3ccc4ccccc4n3)cc12`, for which the melting point lay in the range of 183 to 184 °C. Then `COc1cc(N2CCC(N3CCCN(CCO)CC3)CC2)ccc1Nc1ncc2ccc(-c3ccccc3N(C)S(C)(=O)=O)n2n1`, with 91 to 104 °C; and `CN1C/C(=C/C(=O)Nc2ccc(Cl)nn2)C[C@@H]2c3cccc4[nH]cc(c34)C[C@H]21`, with 242 to 243 °C; and `O=C(Oc1ccccc1)N1CCc2[nH]c3c(cnc4cc(Cl)ccc43)c2C1`, with > 250 °C.

Take `CC1=Cc2ccc(Cl)cc2C(c2ccc(N)c(C)c2)=NN1C(=O)NC1CC1`: the melting point is 233 to 236 °C. With `CCc1[nH]cc2c1-c1ccc(Cl)cc1C(c1ccccc1Cl)=NC2`, the melting point lay in the range of 251 to 253 °C.

`CCn1cc(C(=O)O)c(=O)c2cc(Cl)c(N3CCN(CCO)CC3)cc21` gave a melting point of 215 °C.

Compound `O=C(O)Cc1onc(O)c1Cl` returned a melting point of 155 °C. Then `CC(C)OC(=O)Cn1c(=O)n(C)c(=O)n(-c2cc(N3C(=O)c4cccc(F)c4C3=O)c(F)cc2Cl)c1=O`, with 119 to 125 °C; and `CCOc1cc(-c2cc(C(F)(F)F)n3ncc(C(=O)Nc4cccc(S(C)(=O)=O)c4)c3n2)ccc1C(F)(F)F`, with 215 °C; and `Cc1ccc2cc(NS(=O)(=O)c3cc(Cl)ccc3Cl)ccc2n1`, with 125 °C. `COc1cc(-c2ccc3cnc(Nc4ccc(C5CCN(CC(N)=O)CC5)cc4)nn23)c(OC)nn1`: the melting point lay in the range of 249 to 251 °C.

`Oc1ccc2ccccc2c1C1NCCc2ccccc21` (centres undefined) displayed a melting point of 148 to 150 °C. Next, `FC(F)(F)c1cccc2c1Sc1ccccc1NC2=S`: 265 to 267 °C; `Cc1cc(Cl)ccc1NC=NO`: 171 to 172 °C. As to `CCOC(=O)C1=C(C)NC(OC)=NC1c1cccc([N+](=O)[O-])c1` (centres undefined), the melting point fell in the range of 101 to 103 °C.

The compound `CC(C)(C)NCC(O)COc1cccc(NC(N)=O)c1C(N)=O` (centres undefined) showed a melting point of 189 to 191 °C. Then `CO/C(=C\c1ccc2oc(Cc3nc(-c4ccccc4)oc3C)cc2c1)C(N)=O`, with 160 to 164 °C; and `Cc1cc(OC(C)c2ccccc2)ccc1C(C)N(O)C(N)=O` (centres undefined), with 157 to 158 °C. Next, `COC(=O)CCc1cc2c(s1)NC(=S)C(C)N=C2c1ccccc1Cl` (centres undefined): 198 to 200 °C; `O=c1[nH]c2ccc(CCCN3CCC(Cc4ccc(F)cc4)CC3)cc2o1`: 105 to 107 °C. Then `COC(=O)C(C#N)CC(=O)c1ccc(Cl)cc1` (centres undefined), with 75 to 79 °C; and `N#Cc1ccccc1Sc1nsc2ccccc12`, with 116 to 117 °C. `CNC(=S)NCCn1c(=O)ccc2c(C)cc(C)nc21` returned a melting point of 216 to 218 °C. For the compound `CC(=O)OC1=CC2=CCC3C(C(F)CC4(C)C(=O)CCC34)C2CC1` (centres undefined), the melting point fell in the range of 175 to 177 °C. `CC(C)n1nc(-c2c(NC3CC3)nc(N)nc2-c2ccccc2)ccc1=O` registered a melting point of 237 to 239 °C. Then `COC(=O)c1ccc(-c2ccc(Cl)s2)nc1`, with 122 to 124 °C; and `Nc1cc(Cl)cnc1F`, with 74 °C.

For `O=C1N(Cc2ccccc2)Cc2cnc(Nc3ccc(N4CCCCC4)cn3)nc2N1C1CCCC1`, the melting point lay within 194 to 196 °C. Then `CC(C)C[C@H](N)C(=O)NCCCCNC(=O)c1ccccc1`, with 146 to 148 °C; and `CCOC(=O)C=C(C)C=CC=C(C)C=Cc1c(C)sc(C)c1C`, with 88 to 89 °C; and `Cc1noc(NC(=O)N2CCN(c3cc(-c4cccc(F)c4)ncn3)CC2)c1C`, with 185 to 186 °C.

Regarding `NC(=O)C(=O)Nc1nc(-c2oncc2-c2c(F)cccc2Cl)cs1`, the melting point was in the range of 235 to 237 °C. In turn, `CC(Cl)(Cl)C(NC(=O)c1cccnc1)NC(=NC#N)Nc1ccc(Cl)nc1` (centres undefined) registered a melting point of 212 to 213 °C. The compound `O=C(NCCCCO)OCc1ccccc1` came in with a melting point of 80 to 81 °C. For the compound `CCOC(=O)c1csc(NC(=O)C(CC2CCCC2)c2ccc(NC(=O)c3cccnc3)cc2)n1` (centres undefined), the melting point was in the range of 222 to 223 °C.

`Cc1ccc2c(c1)c(=O)c(S(C)=O)nn2C` (centres undefined): the melting point fell in the range of 173 to 175 °C. `Cc1noc(-c2cn(-c3cccc(-c4ccccc4)c3)cn2)n1` gave a melting point of 163 to 165 °C.

For `COc1ccc2c(Nc3ccc(C)c(O)c3)c(C#N)cnc2c1`, the melting point is > 250 °C. Then `CCOC(=O)c1csc(C2OC(COC(=O)c3ccccc3)C(O)C2O)n1` (centres undefined), with 82 to 85 °C; and `O=c1cc(-c2ccccc2)oc2c(CN3CCC(O)CC3)c(O)c(O)c(O)c12`, with 221 °C. Then `COc1ccc(NC(=O)N2CCN(CCc3ccc(-c4cccc(N)n4)cc3)CC2)cc1`, with 182 to 184 °C; and `O=C(O)C1(c2ccc(Cl)cc2)OCC(c2ccc(F)cc2)(c2ccc(F)cc2)CO1`, with 228 to 230 °C; and `NS(=O)(=O)c1ccc(CNC(=O)c2cccnc2Oc2cccc(-n3cnnn3)c2)cc1`, with 72 to 74 °C.

`CC1(C)C=C(c2cccc(C(F)(F)F)c2)c2ccc(O)cc2O1` came in with a melting point of 102 to 106 °C. Then `O=C(c1cccs1)c1cccc2nc(N[C@@H]3CCc4ccccc43)ccc12`, with 176 °C; and `COC(=O)CC(Nc1ccccc1)c1ccccc1` (centres undefined), with 110 °C; and `Cn1c(Sc2ccccc2)c(C=NO)c(=O)n(C)c1=O`, with 152 °C. Then `CCc1cnc(C2=NC(C)(C(C)C)C(=O)N2)c(C(=O)NCCCCCC(=O)O)c1` (centres undefined), with 76 to 81 °C; and `CCC#COc1ccc(S(=O)(=O)NC(CSc2ccccn2)C(=O)NO)cc1` (centres undefined), with 115 to 120 °C. Take `N#CC(C(=O)Nc1ccc(S(=O)(=O)C(F)(F)F)cc1)=C(O)C1CC1`: the melting point was in the range of 168 to 170 °C. Then `CCC(CO)Nc1nc(C)nc2c(C)nn(C)c12` (centres undefined), with 165 to 168 °C. Then `Cn1cncc1C(O)(c1ccc(C#N)cc1)c1ccc2c(c1)c(-c1cccc(Cl)c1)cc(=O)n2C` (centres undefined), with 210 °C. On to `OC(CCN1CCC(c2ccccc2)CC1)c1ccc(-c2ccccc2)cc1` (centres undefined), for which the melting point lay in the range of 99 to 101 °C. Consider `CCCCn1sc2nccn2c1=O`, for which the melting point was 142 to 143 °C. Next, `CC(C)CC(=O)N[C@@H](CC(C)C)C(=O)N[C@@H](Cc1ccccc1)C(=O)CSCc1ccco1`: 108 to 115 °C; `O=C(O)c1ccc(-c2nc(-c3ccc(OC(F)F)cc3)co2)cc1`: 261 to 262 °C; `O=C(N[C@@H]1CN(C2CCCCC2)C[C@H]1O)c1ccc([N+](=O)[O-])cc1` (relative stereo): 156 to 157 °C. Next, `COc1cc(OC(C)C)ccc1-c1c(OC(C)C)cccc1C(=O)O`: 117 to 119 °C; `CNC(=O)C(=O)CCCCCCSc1nc(-c2ccccc2)cs1`: 107 to 108 °C; `Cn1ncc2c1-c1c(Nc3ccccc3)sc(C(N)=O)c1CC2`: 140 to 141 °C.

In the case of `CNS(=O)(=O)Oc1ccccc1`, the melting point fell in the range of 43 to 45 °C.
